Experimental findings from PMC5626031, “Differential inhibition of adenylylated and deadenylylated forms of M. tuberculosis glutamine synthetase as a drug discovery platform” (PLoS ONE, 2017) are described below.

Each structure is given as a SMILES string. Where “and” joins values, the source holds several entries; their conditions need not be identical. Equal entries are not always repeated. Entries after “also recorded” stand apart in the source; their conditions may differ. Where two headings read alike, the source gives them in different places. Some results are limits rather than exact numbers.

The target of test [1] is T1, adenylylated MtbGS (Mycobacterium tuberculosis, UniProt P9WN39).
T1 construct: made in house; host or cells: E. coli YMC11E(DE3) with pTBSK and pTBglnE
Nature of the test: biochemical. The class given is biochemical, M. tuberculosis. Conditions: for inhibition at 10 µM: 10μM final concentration; for Selectivity for adenylylated vs deadenylylated MtbGS: from % inhibition at 10μM of both enzyme forms; for IC50: dose-response assay.

Test [2] addresses T2, deadenylylated MtbGS (Mycobacterium tuberculosis, UniProt P9WN39).
T2 construct: made in house; host or cells: E. coli YMC11E with pTBSK
Kind of test: biochemical. More on the design: species or system M. tuberculosis. Conditions: pre-incubation protocol; for inhibition at 10 µM: 10μM final concentration; for IC50: dose-response assay, single assay values.

Test [3] relates to M.tb H37Rv reference strain. Kind of test: BACTEC 460TB assay of mycobacterial growth. Conditions: for Activity against M.tb H37Rv, in words: 100 μM final concentration; for Growth inhibition of M.tb H37Rv (percentage of growth index): 100 μM, day 6 of incubation, relative to control cultures. The format is cell-based, Mycobacterium tuberculosis.
Test [4] deals with M.tb (Beijing220) in mouse bone-marrow derived macrophages. Kind of test: Intracellular M.tb in mouse bone-marrow derived macrophage assay. Conditions: for Activity against intracellular M.tb (Beijing220), in words / Percentage killing of intracellular M.tb (Beijing220), Fig 7: 100 μM; for Activity against intracellular M.tb (Beijing220), in words: Fig 7; for Percentage killing of intracellular M.tb (Beijing220), Fig 7: MOI 2:1, drug on day 4 post infection, harvest day 2 post drug, first experiment (8 selective compounds). The class given is cell-based, Mycobacterium tuberculosis.

Where [5] appears, read: pre-incubation protocol, average over the 4 screens, read-out: Adenylated Mtb GS (% inhibition) AVG.
Setting [6] is: pre-incubation protocol, screen 1, read-out: Adenylated Mtb GS (% inhibition) Screen 1.
Where [7] appears, read: pre-incubation protocol, screen 2, read-out: Adenylated Mtb GS (% inhibition) Screen 2.
Setting [8] is: pre-incubation protocol, screen 3, read-out: Adenylated Mtb GS (% inhibition) Screen 3.
Where [9] appears, read: pre-incubation protocol, screen 4, read-out: Adenylated Mtb GS (% inhibition) Screen 4.
Where [10] appears, read: average over the 4 screens, read-out: Deadenylated Mtb GS (% inhibition) AVG.
Where [11] appears, read: screen 1, read-out: Deadenylated Mtb GS (% inhibition) Screen 1.
Setting [12] is: screen 2, read-out: Deadenylated Mtb GS (% inhibition) Screen 2.
Setting [13] is: screen 3, read-out: Deadenylated Mtb GS (% inhibition) Screen 3.
Where [14] appears, read: screen 4, read-out: Deadenylated Mtb GS (% inhibition) Screen 4.

T1 sequence (P9WN39 2-478 limits assumed): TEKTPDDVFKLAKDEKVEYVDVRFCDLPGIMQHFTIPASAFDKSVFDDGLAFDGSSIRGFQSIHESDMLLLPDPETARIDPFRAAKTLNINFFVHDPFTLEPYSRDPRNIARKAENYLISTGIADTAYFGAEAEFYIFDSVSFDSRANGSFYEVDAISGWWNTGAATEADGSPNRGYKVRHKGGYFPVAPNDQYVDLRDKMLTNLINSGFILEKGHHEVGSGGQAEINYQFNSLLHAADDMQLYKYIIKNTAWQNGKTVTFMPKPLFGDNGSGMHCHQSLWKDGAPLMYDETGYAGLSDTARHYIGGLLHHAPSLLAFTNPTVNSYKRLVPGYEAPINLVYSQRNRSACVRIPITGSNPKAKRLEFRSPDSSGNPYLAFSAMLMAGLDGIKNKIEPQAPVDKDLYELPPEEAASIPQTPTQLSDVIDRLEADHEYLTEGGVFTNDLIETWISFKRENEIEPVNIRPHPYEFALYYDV
T2 sequence (P9WN39 2-478 limits assumed): as above

As to `NC(CCS(=O)(=O)O)C(=O)O` (stereo not drawn) [Compound 5], the inhibition (usually the share of the control response that was lost under treatment) at 10 µM in test [1] (setting [5]) was found to be 38%; in test [1] (setting [6]), 48%; in test [1] (setting [7]), 33%; in test [1] (setting [8]), 40%; in test [1] (setting [9]), 29%; in test [2] (setting [10]), 2%. Also, the inhibition at 10 µM in test [2] (setting [11]) was 0%; in test [2] (setting [12]) it was 0%; in test [2] (setting [13]), 6%; in test [2] (setting [14]), 0%.

For the compound `O=C(O)c1ccncc1` [Compound 5002], the “Activity against M.tb H37Rv, in words” value in test [3] is listed as “no activity”. For the same compound, the inhibition at 10 µM is 45% in test [1] (setting [5]); 68% in test [1] (setting [6]); 40% in test [1] (setting [7]); 38% in test [1] (setting [8]); 35% in test [1] (setting [9]); 8% in test [2] (setting [10]). Also, the inhibition at 10 µM in test [2] (setting [11]) was 0%; in test [2] (setting [12]) it was 10%; in test [2] (setting [13]), 8%; in test [2] (setting [14]), 14%.

`Nc1nc(N)c(NC(=O)c2ccccc2)c(O)n1` [Compound 5009]: the “Activity against M.tb H37Rv, in words” value in test [3] is recorded as “no activity”. Further, the inhibition at 10 µM in test [1] (setting [5]) was 40%; in test [1] (setting [6]), 37%; in test [1] (setting [7]), 50%; in test [1] (setting [8]), 50%; in test [1] (setting [9]), 22%; in test [2] (setting [10]), 47%. Also, the inhibition at 10 µM came to 57% in test [2] (setting [11]), 41% in test [2] (setting [12]), 44% in test [2] (setting [13]) and 44% in test [2] (setting [14]).

With `O=C1NC(C(=O)O)=C(C(=O)O)C(c2ccc([N+](=O)[O-])cc2)N1` (stereo not drawn) [Compound 5012], the “Activity against M.tb H37Rv, in words” value in test [3] is reported as “no activity”. Besides, the inhibition at 10 µM in test [1] (setting [5]) came out at 40%; in test [1] (setting [6]), 55%; in test [1] (setting [7]), 31%; in test [1] (setting [8]) it was 32%; in test [1] (setting [9]), 42%; in test [2] (setting [10]) it was 15%. For the same compound, the inhibition at 10 µM in test [2] (setting [11]) came to 14%; in test [2] (setting [12]), 16%; in test [2] (setting [13]), 4%; in test [2] (setting [14]), 24%.

For the compound `Cc1nc(N)cc(C[n+]2csc(CCOP(=O)(O)O)c2C)n1` [Compound 5016], the “Activity against M.tb H37Rv, in words” value in test [3] was “no activity”. Besides, the inhibition at 10 µM in test [1] (setting [5]) is 43%; in test [1] (setting [6]), 51%; in test [1] (setting [7]) it was 43%; in test [1] (setting [8]), 46%; in test [1] (setting [9]) it was 30%; in test [2] (setting [10]) it was 11%. Further, the inhibition at 10 µM came to 7% in test [2] (setting [11]), 19% in test [2] (setting [12]), 3% in test [2] (setting [13]) and 13% in test [2] (setting [14]).

For `OCCNc1cc(N2CCCC2)ncn1` [Compound 5024], in test [3], the “Activity against M.tb H37Rv, in words” value was “no activity”. Also, the inhibition at 10 µM in test [1] (setting [5]) worked out at 43%; in test [1] (setting [6]) it was 46%; in test [1] (setting [7]), 48%; in test [1] (setting [8]), 43%; in test [1] (setting [9]) it was 36%; in test [2] (setting [10]), 47%. Moreover, the inhibition at 10 µM in test [2] (setting [11]) turned out to be 49%; in test [2] (setting [12]), 44%; in test [2] (setting [13]), 52%; in test [2] (setting [14]), 44%.

`c1ccc(CNc2cc(N3CCCC3)ncn2)cc1` [Compound 5029]: the “Growth inhibition of M.tb H37Rv (percentage of growth index)” value in test [3] is 66%. The inhibition at 10 µM in test [1] (setting [5]) worked out at 60%; in test [1] (setting [6]) it was 79%; in test [1] (setting [7]), 46%; in test [1] (setting [8]), 56%; in test [1] (setting [9]), 60%; in test [2] (setting [10]), 7%. The inhibition at 10 µM in test [2] (setting [11]) turned out to be 5%; in test [2] (setting [12]), 8%; in test [2] (setting [13]), 7%; in test [2] (setting [14]), 9%. Besides, in test [1], the “Selectivity for adenylylated vs deadenylylated MtbGS” value (“Selectivity for adenylylated” below) is on record as “GS-adenylylated specific”. For the same compound, the “Activity against intracellular M.tb (Beijing220), in words” value (“Activity against intracellular M.tb” below) in test [4] is listed as “moderate activity”. In test [4], the “Percentage killing of intracellular M.tb (Beijing220), Fig 7” value (“Percentage killing … Fig 7” for short) was determined as 67%.

In the case of `O=NN(Cc1ccccc1)c1cc(N2CCCC2)ncn1` [Compound 5045], the “Growth inhibition of M.tb H37Rv (percentage of growth index)” value in test [3] stood at 98%. For the same compound, the inhibition at 10 µM in test [1] (setting [5]) came out at 0%; in test [1] (setting [6]), 0%; in test [1] (setting [7]), 0%; in test [1] (setting [8]), 0%; in test [1] (setting [9]) it was 0%; in test [2] (setting [10]), 48%. In addition, the inhibition at 10 µM was 44% in test [2] (setting [11]), 45% in test [2] (setting [12]), 54% in test [2] (setting [13]) and 48% in test [2] (setting [14]). Besides, the “Selectivity for adenylylated” value in test [1] is given as “significant selectivity for the deadenylylated MtbGS; also recorded: deadenylylated selective; also recorded: specific to the de-adenylylated form of GS”. Further, the “Percentage killing of intracellular M.tb (Beijing220), Fig 8” value in test [4] (100 μM for 2 days, second experiment at 10, 50 and 100 μM) stood at 73%. Moreover, the “Activity against intracellular M.tb” value in test [4] was “moderate activity”. For the same compound, the “Percentage killing … Fig 7” value in test [4] was found to be 64%.

Consider `COc1ccc(-c2nc3ccccn3c2Nc2c(C)cccc2C)cc1OC` [Compound 10059], for which the inhibition at 10 µM in test [1] (setting [5]) amounted to 91%; in test [1] (setting [6]), 82%; in test [1] (setting [7]), 99%; in test [1] (setting [8]) it was 82%; in test [1] (setting [9]), 100%; in test [2] (setting [10]) it was 44%. The inhibition at 10 µM in test [2] (setting [11]) stood at 49%; in test [2] (setting [12]) it was 48%; in test [2] (setting [13]) it was 36%; in test [2] (setting [14]), 43%. The IC50 is less than 100 µM in test [1] (enzyme form not given, read-out: IC50 concentration, MtbGS); 13.2 µM and 17.1 µM in test [2]. Further, the “Selectivity for adenylylated” value in test [1] is on record as “GS-adenylylated specific”. Besides, in test [4], the “Activity against intracellular M.tb” value was “moderate activity”. In addition, in test [4], the “Percentage killing … Fig 7” value came to 54%.

In the case of `Nc1nc(O)c2ccccc2n1` [Compound 12004], in test [3], the “Activity against M.tb H37Rv, in words” value is recorded as “no activity”. Besides, the inhibition at 10 µM in test [1] (setting [5]) was 34%; in test [1] (setting [6]), 39%; in test [1] (setting [7]) it was 32%; in test [1] (setting [8]) it was 33%; in test [1] (setting [9]), 30%; in test [2] (setting [10]) it was 42%. The inhibition at 10 µM in test [2] (setting [11]) was determined as 50%; in test [2] (setting [12]) it was 43%; in test [2] (setting [13]), 38%; in test [2] (setting [14]) it was 38%.

`CP(=O)(O)CC[C@H](N)C(=O)O` [PhosT, phosphinotricin, reference compound]: the inhibition at 10 µM in test [1] (setting [5]) was found to be 98%; in test [1] (setting [6]), 100%; in test [1] (setting [7]), 95%; in test [1] (setting [8]), 97%; in test [1] (setting [9]) it was 100%; in test [2] (setting [10]), 100%. In addition, the inhibition at 10 µM in test [2] (setting [11]) worked out at 100%; in test [2] (setting [12]) it was 98%; in test [2] (setting [13]), 100%; in test [2] (setting [14]) it was 100%. For the same compound, the IC50 in test [1] (pre-incubation protocol, single assay values, read-out: IC50, adenylylated MtbGS) came to 0.016 µM; in test [2], 0.83 µM.
